One data set concerns HSV-1 (strain CI). The data set is classed as in vivo, mice.
A further data set concerns HSV-1. The data set is classed as cell-based, Herpes Simplex Virus 1. Particulars: BHK cells, oligonucleotide 3.0 μM.
The next data set deals with HSV-1 virus (strain L2). The format is cell-based, Herpes Simplex Virus 1. The note with it: Vero cells, 24 hours.

Where two headings read alike, the source gives them in different places. {C11P} = undecylphosphate group; {Acr} = acridine group

In the case of “Free Anti-Influenza: AGCAAAAGCAGG, equivalently modified control (5' {C11P}, 3' {Acr}, sugars by position and backbone not given here)”, the “Animals Survived/No. of Animals in group, Exp. 1” value with HSV-1 (strain CI) (mouse, in vivo, iv) is given as 0/9. Also, the “Animals Survived/No. of Animals in group, Exp. 2” value with HSV-1 (strain CI) (mouse, in vivo, iv) was 1/10. In the data set on HSV-1 (strain CI) (mouse, in vivo, iv), the “Animals Survived/No. of Animals in group, Exp. 3” value is 0/10. Besides, in the data set with HSV-1 (strain CI) (over Exp. 1-3), the “% Survival” value is 7.0%. The “HSV-1 Infectious Titre (CPE50/ml) (n = 7)” value was 9 (±2) × 10^3 CPE50/ml in the data set on HSV-1, 1.1 (±0.4) × 10^6 CPE50/ml in the data set on HSV-1 virus (strain L2) (oligo conc. 0.2 μM), 0.9 (±0.2) × 10^6 CPE50/ml in the data set on HSV-1 virus (strain L2) (oligo conc. 1.0 μM) and 0.6 (±0.3) × 10^6 CPE50/ml in the data set with HSV-1 virus (strain L2) (oligo conc. 5.0 μM).

Source of the values: patent publication US7256180B2 (priority 2000, dated 2007).
